Assay results from a melting point compilation (Tetko et al.; mined from patent text by program, amines drawn as free bases though some values may be those of a salt).

| Structure (SMILES) | melting point [°C] |
| --- | --- |
| CC(CCCc1ccc(F)cc1)c1cc(O)c2c(c1)OC(C)(C)C1=C2CN(CC(=O)NC(N)=O)CC1 (stereo not drawn) | 133 to 134 |
| COc1cc2c(cc1OC)C(=O)CC(C)(C)O2 | 105 to 106 |
| Cc1ccc(-c2nc(O)cc(O)n2)cc1 | 314 |
| O=c1[nH]c2cc(Cl)ccc2n1C1CCN(CCCC(c2ccc(F)cc2)c2ccc(F)cc2)CC1 | 186 |
| CN1C(=O)CC[C@]2(C)c3ccc(-c4ccc(F)cc4C(F)(F)F)cc3CC[C@@H]12 | 70 |
| Cc1nnc(-c2ccc3occ(-c4ccc(C#N)cc4)c3c2)o1 | 201 to 202 |
| Cc1ccc2c3c(ccc2n1)OCC(CNCC1CCc2[nH]c4ccc(Cl)cc4c2C1)O3 (stereo not drawn) | 104 to 105 |
| CC(=O)Nc1c(C)cc(F)cc1[N+](=O)[O-] | 167 to 172 |
| CC(C)=C1CNc2ccc(O)cc21 | 175 to 178 |
| Brc1c(NC2=NCCN2)ccc2ncn(CC3CCCCC3)c12 | 153 to 155 |
| COc1ccc(-c2csc(C=CC(=O)O)c2)cc1C(C)(C)C | 206 to 207 |
| Cc1nc(N2CCN(CC3CC3(F)F)C2=O)sc1C(=O)NCc1cncs1 (stereo not drawn) | 182 to 184 |
| COC(=O)C1=C(O)c2c(c3ccccc3n2C)S(=O)(=O)N1C | 189 to 190 |
| COc1ccc(-n2nc(Sc3cc(Cl)cc(Cl)c3)c(C)c(C#N)c2=O)cc1 | 195 to 197 |
| COC(=O)c1cc2cccnc2cc1C(=O)OC | 101 to 102 |
| COc1cc(C)c(C(=O)c2c(Cl)cccc2Cl)c(O)c1O | 182 |
| COc1cccc2c(CCN(C3CCC3)C3COc4c(F)ccc(C(N)=O)c4C3)coc12 (stereo not drawn) | 135 to 145 |
| CC1CC(=O)c2cc(N)c(F)cc2O1 (stereo not drawn) | 135 to 138 |
| CC1(O)c2ccc(Cl)cc2CC1(F)S(C)(=O)=O (stereo not drawn) | 148 |

| Structure (SMILES) | melting point [°C] |
| --- | --- |
| CCCCCC/C=C\CCCCCCCC(=O)N[C@H]1CCCNC(=O)C1 | 67 to 68 |
| CCN(CC)CCNC(=O)N1CCC(S(=O)c2ccc(Cl)cc2)C1 (stereo not drawn) | 128 to 130 |
| Nc1nc(Br)cn2c(Br)cnc12 | 246 |
| Cc1cccc2c3c(n(Cc4ccc(F)cc4)c12)CCCC3=O | 154 to 155 |
| CCCn1nc(-c2ccc(O)c(Cl)c2)c2cccc(Cl)c21 | 145 to 146 |
| CCOC(=O)CC(=NNc1ccc(C(=O)O)cc1C)C(C)=O | 161 to 162 |
| Cc1cc([N+](=O)[O-])cc(C)c1NS(=O)(=O)CCSCCN | 159 |
| CC1CCN(c2ccc([N+](=O)[O-])cc2C(=O)c2ccc(Br)cc2)CC1 | 142 |
| COc1cccc(C=CC(=O)C=Cc2cccc(OC)c2)c1 | 52 to 54 |
| COc1ccc(-n2nnnc2C(F)(F)F)cc1C=O | 117 |
| Cc1ccc2c(c1)C(=O)N(C)Cc1c(C#N)ncn1-2 | 252 |
| C=CCn1cc(Br)cnc1=O | 142 to 143 |
| CC(C)Oc1cc(C(=O)O)n(Cc2ncc(C(F)(F)F)cc2Cl)n1 | 124 to 125 |
| CC1(C)CC(=S)Nc2ccc(-c3cccc(Cl)c3)cc21 | 197 to 198 |
| O=c1c(-c2cccc(C(F)(F)F)c2F)nn(Cc2ccc(F)cc2F)c2cc(Cl)ccc12 | 118 to 120 |
| COc1ccc2nc(-c3ccc(OC)c(F)c3)cc(Cl)c2c1 | 112 to 116 |
| ON=C(c1ccc(F)cc1)c1ccc(O)c(Cl)c1Cl | 150 to 156 |
| Nc1nc2c(sc(=O)n2Cc2ccc(Br)cc2)c(=O)[nH]1 | > 320 |
| O=C1CSc2cc(C(O)(C(F)(F)F)C(F)(F)F)ccc2N1 | 230 to 232 |

| Structure (SMILES) | melting point [°C] |
| --- | --- |
| COc1cc(OC)nc(N(C)C(=O)NS(=O)(=O)c2ccccc2OC(F)(F)F)n1 | 162 |
| CCOC(=O)C1(Cl)C(=O)N2CCOc3cc(Cl)cc1c32 (stereo not drawn) | 147 to 148 |
| Cc1oc2c(-n3c(=O)cc(C(F)(F)F)n(C)c3=O)c(F)cc(Cl)c2c1C=O | 148 to 150 |
| CCOC(=O)C1=Cc2cc(Cl)cc(-c3ccc(Cl)cc3)c2OC1C(F)(F)F (stereo not drawn) | 114 to 116 |
| Cc1ccn(-c2nc(Cl)c([N+](=O)[O-])s2)n1 | 153 |
| ON=Cc1ccc(-c2ccc(O)cc2)cc1 | 207 to 210 |
| CC(=O)C(=Cc1cc([N+](=O)[O-])cc([N+](=O)[O-])c1)C(C)=O | 101 to 105 |
| COc1ccc2c(C(=O)C(F)(F)F)c[nH]c2c1 | 206 to 208 |
| COC(=O)c1ncc(N)nc1N | 252 to 254 |
| CCC(=S)Nc1c(SC(F)(F)F)c(C#N)nn1-c1c(Cl)cc(C(F)(F)F)cc1SC | 153 to 155 |
| O=C(Cn1c(Cl)ccc1Cl)N=C1NCCN1 | 225 |
| CCOC(=O)C(=CNc1cc(C)nn1-c1ccccn1)C(=O)OCC | 128 to 131 |
| Cc1cc(O)c(C)c(C)c1NC=O | 219 to 220 |
| CC1(C)COC1(Cn1cncn1)c1ccc(F)cc1F (stereo not drawn) | 76 to 78 |
| CC1(c2ccccc2)Cc2cc(OCC(=O)O)c(Cl)c(Cl)c2C1O (stereo not drawn) | 160 to 162 |
| O=S(=O)(Cl)c1ccc2oc(Br)c(CBr)c2c1 | 129 to 130 |
| N#Cc1cnc2cc3cc(O)c(O)cc3cc2c1Nc1ccc(Cl)cc1Cl | > 260 |
| COC(C)C(=O)Nc1ccc(C2=NNC(=O)CC2)cc1 (stereo not drawn) | 245 to 247 |

Second part, the compound after the results:

| melting point [°C] | Structure (SMILES) |
| --- | --- |
| 212 to 214 | NC(=O)NCCNc1n[nH]c2ncnc(Nc3cccc(Cl)c3)c12 |
| 207 to 208 | CN(C)CC(=O)N1c2ccccc2N(C)C(=O)c2cnc(-c3ccccc3)nc21 |
| 129 to 131 | Cc1c(-c2ccc(OC(C)C)cc2)n(Cc2ccc(OCCO)cc2)c2ccc(OCc3ccccc3)cc12 |
| 205 to 207 | CCOC(=O)c1cn2c(cc(Br)c3ccccc32)n1 |
| 53 to 56 | CC(C)(NC(=O)C(CS)Cc1ccccc1)C(=O)OCc1ccccc1 (stereo not drawn) |
| 103 to 106 | C[C@H](C(=O)O)c1ccc2cc(OCCCCCCc3ccc(O)c(O)c3)ccc2c1 |
| 165 | Fc1ccc(C2(Cn3nc[nH]c3=S)OC2c2ccccc2Cl)cc1F (stereo not drawn) |
| 135 to 137 | Oc1ccc(Cl)cc1CCc1ccccn1 |
| 136 to 137 | CNCCNc1noc2cc(OC)ccc12 |
| 99.1 to 101 | CCOC(=O)N1CCN(CCNc2ncnc3c2sc2nc(-c4ccco4)c4c(c23)CC(C)(C)CC4)CC1 |
| 152 to 154 | OCc1ccc(Nc2nc(Oc3ccccc3)nc(Oc3ccccc3)n2)cc1 |
| 148 to 150 | CC(C)(C)c1cc(Cn2c(=S)sc3ccccc32)cc(C(C)(C)C)c1O |
| 148 to 150 | Fc1ccc(-c2cc(-c3ccc(F)cc3)nc(Nc3ccc(OC(F)(F)F)cc3)n2)cc1 |
| 67.7 | COn1c(C)nc2cc(C(=O)c3ccccc3)ccc21 |
| 194 | ON=C(c1ccc(Cl)cc1)c1cccc2nc(N[C@@H]3CCc4ccccc43)ccc12 |
| 102 to 104 | CCOC(=O)CC(Cc1ccccc1)NC(=O)c1ccc(OC)cc1 (stereo not drawn) |
| 116 to 118 | OC1(CC2CO2)c2ccccc2CCc2ccccc21 (stereo not drawn) |
| 73.5 to 74.5 | COc1ccc(CCc2nc3ccccc3c(=O)n2CCN(C)C)cc1 |
| 130 to 132 | O=[N+]([O-])c1ccc(NCCCn2ccnc2)cc1 |
| 98 | Cc1cccc(OCCOc2cccc(C)c2)c1 |
| 239 to 241 | Cc1cccc(Nc2ccccc2-c2n[nH]c(=O)o2)c1C |
| 178 to 183 | COc1cc(C2CCNCC2)ccc1Nc1ncc2ccc(N3CC(c4ccccc4)CC3=O)n2n1 (stereo not drawn) |
| 79 to 80 | CC[C@H](C)C(OCc1ccccc1)[C@H]1[C@H]([N+](=O)[O-])[C@@H](c2cccs2)N[C@@H]1C(=O)NCCC(=O)O (stereo partly drawn) |
| 147 to 149 | Cc1nc2ccccc2c(NCC(C)O)c1Br (stereo not drawn) |

| melting point [°C] | Structure (SMILES) |
| --- | --- |
| 202 to 204 | CCN1CCC(NC(=O)Cn2c(-c3ccc(Br)cc3)nc3cccnc32)C1 (stereo not drawn) |
| 239 to 241 | COc1ccc(N2CCN(Cc3cnc(N)nc3N)CC2)cc1 |
| 91 | COC(=O)c1ccc(OC(=O)c2ccccc2)cc1OC |
| 95 to 96 | CCCc1ccccc1OCCCCCOc1coc(C=O)cc1=O |
| 274 to 276 | CCOC(=O)CNC(=O)CCCOc1ccc2nc3[nH]c(=O)[nH]c3cc2c1 |
| 152 to 154 | O=C(CCCCOc1ccc(-c2ccccc2)cc1)NO |
| > 300 | CC(C)OC(=O)c1ccc2c(c1)C(=O)CC(c1ccccc1)=N2 |
| 168 | COC(=O)Nc1nc2cc(C(c3cccc(Cl)c3)n3ccnc3)ccc2[nH]1 (stereo not drawn) |
| 118 to 119 | O=S(=O)(CCN1CC(c2ccccc2)C(c2ccc(Cl)cc2)=N1)c1cccc(C(F)(F)F)c1 (stereo not drawn) |
| 117 to 119 | CC(Oc1ccc(CCNCC(O)COc2ccccc2)cc1)C(N)=O (stereo not drawn) |
| 156 to 157 | COc1cc2nc(-c3ccccc3)nc(N3CCN(C(=O)Nc4ccc([N+](=O)[O-])cc4)CC3)c2cc1OC |
| 198 to 199 | COc1ccc(-c2cc3ccccc3[nH]2)cc1NCc1ccc([N+](=O)[O-])cc1 |
| 135 to 140 | N#Cc1ccc(-c2ccc(C(=O)NCCCCN3CCC(c4ccc5ccccc5c4O)CC3)cc2)cc1 |
| 249 to 252 | O=C(C1CCCc2c1c1ccccc1n2Cc1ccccc1)N1CCCCC1 (stereo not drawn) |
| 168 to 170 | COc1ccc2[nH]cc(CCC(=O)Nc3ccccc3C(=O)O)c2c1 |
| 201 to 202 | O=c1cc(CCl)nc2sc(-c3ccccc3)nn12 |
| 133 to 134 | c1cncc(CCNc2nc(-c3cccs3)ncc2-n2cccn2)c1 |
| 171 to 173 | O=C(NC(=O)c1nnn(Cc2ccccc2)c1NC(=O)c1ccccc1)c1ccccc1 |
| 80 to 81 | CN1CCC(Oc2ccc3ccccc3n2)(c2ccccc2)CC1 |
| 225 | NS(=O)(=O)c1cccc(-c2cn(-c3nc(-c4ccc(Cl)cc4)cc(C(F)(F)F)n3)cn2)c1 |
| 239 to 240 | Cc1cc(-c2ccc(NC(=O)CCN3CCC(c4ccccc4)CC3)cc2)n[nH]c1=O |
| 118 to 120 | N#Cc1c(OCCO)nc(CCO)nc1N1CCc2ccccc2CC1 |
| 97 to 98 | Brc1ccc(N(Cc2ccccc2)c2ccccc2)cc1 |
